From patent US6770632B1, “Folypolyglutamyl synthetase gene transfer to enhance antifolate” (priority 1999, dated 2004)
Several values for one entry are separate records, joined by “and”; a condition that tells them apart may be missing. Equal values may be shown once. Read-outs that look alike come from different tables or passages of the source.

Key:
[1] = test system: 9L cells transfected with CD; settings: 9L cells stably transfected with E. coli cytosine deaminase cDNA; cited from earlier work
[2] = test system: cocultures with nitroreductase-expressing cells; settings: cited from earlier work
[3] = test system: rhabdomyosarcoma cell line; settings: rhabdomyosarcoma cell line transfected with rabbit carboxylesterase cDNA; cited from earlier work
9L cells [4] = test: Cell culture survival study, 9L cells; assay type: cell-based, rat; settings: Rattus norvegicus, 4 h, 9L, read-out: ED50 (the source's name)
Procedure: (§1) Cell Culture Survival Studies: Cells were plated in triplicate at 8×10^5 cells per 10-cm-diameter plate, and were allowed to adhere for 4 hours, after which the medium was replaced with medium containing MTX or EDX. […] Drug-free medium was then added, and three days later the cells were trypsinized and counted on a model ZM Coulter apparatus. Dose-response curves were generated using Sigma Plot 3.0, which employs curve-fitting parameters based on the Marquardt-Levenberg method (Marquardt, D. W., Siam, J., J. Soc. Indust. Appl. Math 11:431-441 (1963)).

9L/FPGS cells [5] = test: Cell culture survival study, 9L/FPGS cells; assay type: cell-based, rat; settings: for EC50: Rattus norvegicus, 4 h, 9L/FPGS, read-out: ED50 (the source's name)
Procedure: as §1

[6] = test system: cocultures of 9L/FPGS and 9L cells; test: Bystander effect study, cocultures of 9L/FPGS and 9L cells; assay type: cell-based, rat; settings: for EC50: Rattus norvegicus, 4 h, 4 hrs drug exposure, FIG. 4b, read-out: ED50 (the source's name); for transmission efficiency (TE): 4 hour pulses
Procedure: For bystander effect studies, cells were plated in triplicate with varying combinations of 9L/FPGS and 9L cells such that the total number of cells was 8×10^5 per 10-cm-diameter plate. The same protocol of 4 hour cell adherence followed by 4 hour drug exposure, washes, growth in drug free medium for 3 days, and counting on a ZM coulter apparatus was then followed. […] Four mL conditioned medium+2 mL fresh medium were added to 10-cm-diameter plates containing 9L/BAG cells plated overnight (1000 cells/dish, with a clonogenic efficiency of approximately 20%). Six days later, the cells were fixed with 4% paraformaldehyde in PBS. Fixed cells were stained for LacZ by incubating overnight in a solution containing 35 mM potassium ferricyanide, 35 mM potassium ferrocyanide, 2 mM magnesium chloride, and 0.2% 5-bromo-4-chloro-3-indolyl-β-D galactoside (Xgal; Fisher Scientific Co.;Pittsburgh, Pa.) at pH=7.3 (Price, J., et al., Proceedings of the National Academy of Sciences USA 84:156-160 (1987)). The next day, blue colonies greater than 1 mm in diameter were counted.
However, a more quantitative approach is to generate a dose-response curve for nontransfected cells, transfected cells, and a coculture and to calculate the transmission efficiency (TE) for the coculture (Friedlos, F., et al., Journal of Medicinal Chemistry 40:1270-1275 (1997)). [formula]
The superscripts 0, N, and 100 designate the ED50 values for cultures containing 0, N, and 100% transfected cells.

9L/BAG cells = test: Conditioned medium colony formation of 9L/BAG cells; assay type: cell-based, rat
Procedure: Four mL conditioned medium+2 mL fresh medium were added to 10-cm-diameter plates containing 9L/BAG cells plated overnight (1000 cells/dish, with a clonogenic efficiency of approximately 20%). Six days later, the cells were fixed with 4% paraformaldehyde in PBS. […] The next day, blue colonies greater than 1 mm in diameter were counted.
This conditioned medium was then added to 9L/BAG cells. A week later, the cells were stained for LacZ expression, which allowed colony formation to be assayed.

subcutaneous 9L tumors = test: Growth of subcutaneous 9L tumors in nude mice; assay type: in vivo; settings: 3 mg/kg daily i.p.
Procedure: (§2) In Vivo Experiments: 10^5 9L or 9L/FPGS cells or a mixture of 8×10^5 9L+2×10^5 9L/FPGS cells in 200 μL DMEM were injected subcutaneously into the flanks of six week old female nude mice (NCr/Sed, nu/nu, 20 gm; Massachusetts General Hospital breeding colony). After 14 days, when the tumors had reached an average volume of 60 mm^3, the mice were randomly divided into experimental groups with five mice per group. Intraperitoneal injections of varying MTX or EDX doses dissolved in 200 μL 0.9% NaCl were administered either daily or every third day. Tumor size was measured weekly using calipers. Tumor volume was calculated as length×width×height, as described previously (Takamiya, Y., et al., Journal of Neuroscience Research 33:493-503 (1992)).

[7] = test system: subcutaneous 9L/FPGS tumors; test: Growth of subcutaneous 9L/FPGS tumors in nude mice; assay type: in vivo; settings: 3 mg/kg daily i.p.
Procedure: as §2

[8] = test system: mixed subcutaneous tumors 20% 9L/FPGS and 80% 9L cells; test: Growth of mixed subcutaneous tumors (20% 9L/FPGS + 80% 9L) in nude mice; assay type: in vivo; settings: 3 mg/kg daily i.p.
Procedure: as §2

FPGS = settings: relative to MTX; cited from earlier work
in vivo = settings: nude, mouse, ip
9L cells [9] = test: [3H]MTX accumulation and thin layer chromatography of MTX polyglutamates in 9L cells; settings: 24 hour exposure to 2 μM MTX, TLC
Procedure: (§3) Thin Layer Chromatography of MTX Metabolites: 10^6 9L or 9L/FPGS cells were plated in 6-cm diameter dishes and allowed to adhere for 4 hours, after which cells were incubated overnight with 2 μM 3′, 5′, 7-[^3H] methotrexate (Moravek Biochemicals; Brea, Calif.). Cells were then trypsinized, centrifuged, resuspended in 300 μL deionized water, and sonicated for 45 seconds at half-maximal power. Sonicated cells were centrifuged briefly to remove cellular debris, after which protein concentration was calculated using the Bradford protein assay. Proteins were precipitated with 1 mL methanol at −20° C. for 2 hr. Precipitated proteins were removed by centrifugation at 20,000 g for 30 min, and the supernatant was then concentrated to 30 μL under a stream of N2 at 37° C. on a Meyer N-Evap Analytical Evaporator (Organomation Associates Inc., Northborough, Mass.). A 1 μL aliquot was scintillation counted—cpm were converted into moles of drug taken up by determining the cpm of a known quantity of [^3H] MTX. […] Plates were eluted with a chloroforrn-methanol-acetic acid mixture (2:2:1) containing 20 mg/mL cetyl trimethylammonium bromide (Sigma). Following elution, the plates were placed under ordinary fluorescent light for 2 days, after which 20 nmol unlabelled standards were visualized under long-wave ultraviolet light. Plates were run in duplicate and the average RF values of the standards were: MTX=0.66; MTX-G1=0.59; MTX-G2=0.44, MTX-G3=0.33; MTX-G4=0.27; MTX-G5=0.25. Regions corresponding to where standards migrated were marked in the sample lane, scraped individually into scintillation vials, and counted. The amount of each radioactive metabolite in a sample lane was determined as a percentage of the total radioactivity recovered from that sample lane, after subtraction of the background counts obtained from lanes lacking radioactive sample.

9L/FPGS cells [10] = test: [3H]MTX accumulation and thin layer chromatography of MTX polyglutamates in 9L/FPGS cells; settings: 24 hour exposure to 2 μM MTX, TLC
Procedure: as §3

[11] = test system: 9L cells transfected with HSV-TK; settings: 9L cells stably transfected with HSV-TK cDNA; cited from earlier work
[12] = 4 hour pulse, repeat of the dose-response curve (Table 3 footnote c)
[13] = 4 hrs drug exposure, curves of FIG. 1 (MTX) / FIG. 3a (EDX)

## Nc1nc(=O)[nH]cc1F [5-fluorocytosine]
[1]
  ED50 shift nontransfected versus transfected cells: 80 fold

## NC(=O)c1cc(N2CC2)c([N+](=O)[O-])cc1[N+](=O)[O-] [CB1954]
[2]; 1% cocultures
  TE values: above 50%
[2]; 10% cocultures
  TE values: above 70%

## CCc1c2c(nc3ccc(OC(=O)N4CCC(N5CCCCC5)CC4)cc13)-c1cc3c(c(=O)n1C2)COC(=O)[C@]3(O)CC [CPT-11]
[3]
  decrease in ED50 on transfection: 8 fold

## CCC(Cc1cnc2nc(N)nc(N)c2n1)c1ccc(C(=O)N[C@@H](CCC(=O)O)C(=O)O)cc1 (stereo partly shown) [EDX, Edatrexate]
9L cells [4]; [12]
  EC50: 1200 nM
9L cells [4]; 4 hrs drug exposure, bystander experiment FIG. 4b
  EC50: 895 nM
9L cells [4]; [13]
  EC50: 1200 nM
9L/FPGS cells [5]; 9L/FPGS cells, 300 nM, 4 hour pulse
  survival: below 10%
9L/FPGS cells [5]; 4 hour pulses
  range of concentrations with statistically significant difference in survival between 9L and 9L/FPGS: 10,000 fold
9L/FPGS cells [5]; 4 hour pulses, FIG. 1 / FIG. 3A
  difference in ED50 between 9L and 9L/FPGS: 67 fold
9L/FPGS cells [5]; [12]
  EC50: 26 nM
9L/FPGS cells [5]; 4 hrs drug exposure, bystander experiment FIG. 4a (MTX) / 4b (EDX)
  EC50: 20 nM
9L/FPGS cells [5]; [13]
  EC50: 18 nM
[6]; coculture 1% 9L/FPGS
  EC50: 605 nM
[6]; coculture 10% 9L/FPGS
  EC50: 337 nM
[6]; coculture 20% 9L/FPGS
  EC50: 134 nM
[6]; cocultures containing 1% 9L/FPGS cells
  transmission efficiency (TE): 33.1% and 33%
[6]; cocultures containing 10% 9L/FPGS cells
  transmission efficiency (TE): 63.8% and 64%
[6]; cocultures containing 20% 9L/FPGS cells
  transmission efficiency (TE): 87%
9L/BAG cells; conditioned medium from 9L cells pulsed with 0.3 μM for 4 hours
  9L/BAG colonies relative to conditioned medium from non-treated cells: 83%
9L/BAG cells; conditioned medium from 9L/FPGS cells pulsed with 0.3 μM for 4 hours
  9L/BAG colonies relative to conditioned medium from non-treated cells: 47%
Subcutaneous 9L tumors; after three weeks
  fold growth of tumor volume: 10 fold
Subcutaneous 9L tumors; after two weeks
  fold growth of tumor volume: 8 fold
[7]; after three weeks
  growth of tumor volume: doubled in volume
[7]; after two weeks
  fold growth of tumor volume: less than 4 fold
[8]; after three weeks
  fold growth of tumor volume: 5 fold
[8]; after two weeks
  fold growth of tumor volume: more than 4 fold
FPGS
  Km of FPGS, lower than its Km for MTX: 4-5 fold
In vivo
  MTD: 3 mg/kg/day

## CN(Cc1cnc2nc(N)nc(N)c2n1)c1ccc(C(=O)NC(CCC(=O)NC(CCC(=O)O)C(=O)O)C(=O)O)cc1 (stereo not shown) [MTX-G1]
9L cells [9]
  POLYGLUTAMATE DISTRIBUTION (percentages of total sample lane radioactivity): 29%
9L/FPGS cells [10]
  POLYGLUTAMATE DISTRIBUTION (percentages of total sample lane radioactivity): 22%

## CN(Cc1cnc2nc(N)nc(N)c2n1)c1ccc(C(=O)NC(CCC(=O)NC(CCC(=O)NC(CCC(=O)O)C(=O)O)C(=O)O)C(=O)O)cc1 (stereo not shown) [MTX-G2]
9L cells [9]
  POLYGLUTAMATE DISTRIBUTION (percentages of total sample lane radioactivity): 15%
9L/FPGS cells [10]
  POLYGLUTAMATE DISTRIBUTION (percentages of total sample lane radioactivity): 19%

## CN(Cc1cnc2nc(N)nc(N)c2n1)c1ccc(C(=O)NC(CCC(=O)NC(CCC(=O)NC(CCC(=O)NC(CCC(=O)O)C(=O)O)C(=O)O)C(=O)O)C(=O)O)cc1 (stereo not shown) [MTX-G3]
9L cells [9]
  POLYGLUTAMATE DISTRIBUTION (percentages of total sample lane radioactivity): 13%
9L/FPGS cells [10]
  POLYGLUTAMATE DISTRIBUTION (percentages of total sample lane radioactivity): 18%

## CN(Cc1cnc2nc(N)nc(N)c2n1)c1ccc(C(=O)NC(CCC(=O)NC(CCC(=O)NC(CCC(=O)NC(CCC(=O)NC(CCC(=O)O)C(=O)O)C(=O)O)C(=O)O)C(=O)O)C(=O)O)cc1 (stereo not shown) [MTX-G4]
9L cells [9]
  POLYGLUTAMATE DISTRIBUTION (percentages of total sample lane radioactivity): 13%
9L/FPGS cells [10]
  POLYGLUTAMATE DISTRIBUTION (percentages of total sample lane radioactivity): 28%

## CN(Cc1cnc2nc(N)nc(N)c2n1)c1ccc(C(=O)NC(CCC(=O)NC(CCC(=O)NC(CCC(=O)NC(CCC(=O)NC(CCC(=O)NC(CCC(=O)O)C(=O)O)C(=O)O)C(=O)O)C(=O)O)C(=O)O)C(=O)O)cc1 (stereo not shown) [MTX-G5]
9L cells [9]
  POLYGLUTAMATE DISTRIBUTION (percentages of total sample lane radioactivity): 1%
9L/FPGS cells [10]
  POLYGLUTAMATE DISTRIBUTION (percentages of total sample lane radioactivity): 3%

## Nc1nc(O)c2ncn(COC(CO)CO)c2n1 [ganciclovir]
[11]
  ED50 shift nontransfected versus transfected cells: 500 fold
